Laboratory results as given in patent publication US6723567B1, “Screening method for apoptosis and necrosis” (Aponetics Ltd., priority 1998, dated 2004).
“Also recorded” adds a separate entry of the source. Numbered stars: 1 amine (or outer) side, 2 acyl side, 3 side chain; on linkers, the order of the positions; unused ones are H or OH. Bridge positions count the residues as written; N and C are the ends. Square brackets hold non-standard residues; d marks the D form. Peptide text beside a SMILES is read from it. I, II: the chains in the order shown. Actinocin(9to1) = Cc1c2oc3c(C)ccc(C(=O)[*:1])c3nc-2c(C(=O)[*:2])c(N)c1=O; NMeV = CN[C@H](C(=O)O)C(C)C; Sar = CNCC(=O)O

B1: recombinant human TRAIL: TNF-related apoptosis inducing ligand, a known cell death inducer in Jurkat cells (protein, UniProt P50591 1-281, looked up)
Tumor necrosis factor ligand …: MAMMEVQGGPSLGQTCVLIVIFTVLLQSLCVAVTYVYFTNELKQMQDKYSKSGIACFLKEDDSYWDPNDEESMNSPCWQVKWQLRQLVRKMILRTSEETISTVQEKQQNISPLVRERGPQRVAAHITGTRGRSNTLSSPNSKNEKALGRKINSWESSRSGHSFLSNLHLRNGELVIHEKGFYYIYSQTYFRFQEEIKENTKNDKQMVQYIYKYTSYPDPILLMKSARNSCWSKDAEYGLYSIYQGGIFELKENDRIFVSVTNEHLIDMDHEASFFGAFLVG

Key:
[1] = system: A20GFP; assay: ActD/CHX interference with the GFP apoptosis assay in A20GFP; assay type: cell-based, murine; conditions: for inhibition of sFasL SN induced apoptosis: 5 μg/ml ActD and/or 10 μg/ml CHX with 100 μl sFasL SN, 10 hours; for fluorescence intensity / fluorescing capacity of A20GFP: 5 μg/ml ActD and/or 10 μg/ml CHX, 10 hours at 37° C.
Experimental: To find out whether the fluorescence of A20GFP and the GFP apoptosis assay as described in example 7 is dependent on the de novo transcription and protein synthesis, Act D (pharmacy of the University Hospital, Basel), a RNA synthesis inhibitor, and Cycloheximide (Sigma), a protein synthesis inhibitor, were tested in our experimental protocol. After washing A20GFP cells with PBS, 250000 cells were aliquoted in FACS-tubes and incubated with:
a) Tube 1 (control): 500 μl medium complete (MC)
b) Tube 2: 100 μl sFasL SN and 400 μl MC
c) Tube 3: 500 μl MC and 5 μg/ml ActD
d) Tube 4: 400 μl MC, 100 μl sFasL SN, 5 μg/ml ActD
e) Tube 5: 500 μl MC and 10 μg/ml CHX
f) Tube 6: 400 μl MC, 100 μl sFasL SN and 10 μg/ml CHX
g) Tube 7: 500 μl MC, 5 μg/ml Act D and 10 μg/ml CHX
h) Tube 8: 400 μl MC, 100 μl sFasL SN, 5 μg/ml Act D and 10 μg/ml CHX
Tubes 1-8 (a-h) were incubated for 10 hours at 37° C. The fluorescing status of the cells was assayed at 10 hours post treatment.

[2] = system: JurkatGFP; assay: Apoptosis assay: induction of apoptosis in JurkatGFP by recombinant human TRAIL; assay type: cell-based
Experimental: This apoptosis assay has been performed with recombinant human TRAIL, a known cell death inducer in Jurkat cells. 250,000 JurkatGFP cells were aliquoted in two different FACS-tubes.
Tube 1: (control): cells were incubated with 500 μl RPMI medium,
Tube 2: cells were incubated with 25 μl recombinant human TRAIL and 475 μl RPMI medium.
Both tubes were incubated for 18 hours at 37° C. After incubation the test tubes were immediately measured without prior washing.

Molecule | inhibition of sFasL SN induced apoptosis [1] | fluorescence intensity / fluorescing capacity of A20GFP [1] | induction of apoptosis in JurkatGFP ([2]; 25 μl recombinant human TRAIL in 500 μl, 18 hours at 37° C.) | dose dependence of apoptosis induction in JurkatGFP ([2]; data not shown)
Cc1c2oc3c(C)ccc(C(=O)N[C@@H]4C(=O)N[C@H](C(C)C)C(=O)N5CCC[C@H]5C(=O)N(C)CC(=O)N(C)[C@@H](C(C)C)C(=O)O[C@@H]4C)c3nc-2c(C(=O)N[C@@H]2C(=O)N[C@H](C(C)C)C(=O)N3CCC[C@H]3C(=O)N(C)CC(=O)N(C)[C@@H](C(C)C)C(=O)O[C@@H]2C)c(N)c1=O [ActD, Actinomycin D] (I: T[dV]P[Sar][NMeV] / II: T[dV]P[Sar][NMeV]; ester I:1-I:C, II:1-II:C; linker I:N-II:N via Actinocin(9to1)) | nor do they inhibit sFasL SN induced apoptosis | do not substantially interfere with the fluorescing capacity of A20GFP; also recorded: Neither a reduction of GFP-associated fluorescence | – | –
C[C@@H]1C[C@@H]([C@H](O)CC2CC(=O)NC(=O)C2)C(=O)[C@@H](C)C1 [CHX, Cycloheximide] | nor do they inhibit sFasL SN induced apoptosis | do not substantially interfere with the fluorescing capacity of A20GFP; also recorded: Neither a reduction of GFP-associated fluorescence | – | –
B1 | – | – | induced apoptosis in JurkatGFP cells | dose dependent manner
